Measured values reported in patent US20260355191A1, “PAN-RAS INHIBITOR COMPOUND” (ADLAI NORTYE BIOPHARMA CO., LTD., priority 2024, published 2026).

What was measured:
[1] = test system: AsPC-1; test: In vitro cell proliferation inhibition assay (CellTiter-Glo), AsPC-1; type: cell-based; conditions: AsPC-1, KRAS (p.G12D), 72 h; read-out: IC50, antiproliferative activity
Method: (§1) Due to the diversity of RAS mutations, and in order to evaluate the activity of the compounds in different RAS mutant cell lines, we selected cell lines with KRAS^G12D, KRAS^G12V, KRAS^G12c, NRAS^q61L, KRAS^G13D, KRAS^G12R, and KRAS^WT mutations (see the table below for in vitro activity evaluation and screening of the compounds.
(§2) According to the doubling time of different cell lines, different numbers of cells (1000-5000 cells/well) were seeded into 96-well plates containing 180 μL of the corresponding culture medium, and incubated overnight in a cell incubator at 37 °C with 5% C02. On the following day, the test compounds were pre-diluted in the culture medium in a 3-fold serial dilution series, with the highest concentration being […], resulting in 10 concentration gradients in total. Subsequently, 20 μL of culture medium containing the compounds at different concentrations was added to the cells in the 96-well plates, ensuring a final compound concentration of up to 10 μM, with 10 concentrations in 3-fold dilution. After co-incubation of the cells with the compounds for 72 h, the 96-well plates were removed from the incubator and equilibrated at room temperature for 30 min. Then, 25 μL of CellTiter-Glo® Reagent was added to each well and mixed thoroughly, followed by incubation at room temperature for 10 min. Subsequently, 100 μL of the samples was transferred to white 96-well plates (OptiPlate™-96, PerkinElmer), and […] signal values were read using a multifunctional microplate reader (SpectraMax i3x, Molecular Devices). The signal values were then normalized, and curve fitting was performed using a four-parameter logistic regression equation to calculate the half maximal inhibitory concentration (IC50) of the compounds against the cell lines.

[2] = test system: SW480; test: In vitro cell proliferation inhibition assay (CellTiter-Glo), SW480; type: cell-based; conditions: SW480, KRAS (p.G12V), 72 h; read-out: IC50, antiproliferative activity
Method: as §1, §2

[3] = test system: H358; test: In vitro cell proliferation inhibition assay (CellTiter-Glo), H358; type: cell-based; conditions: H358, KRAS (p.G12C), 72 h; read-out: IC50, antiproliferative activity
Method: as §1, §2

[4] = test system: HepG2; test: In vitro cell proliferation inhibition assay (CellTiter-Glo), HepG2; type: cell-based; conditions: HepG2, NRAS (p.Q61L), 72 h; read-out: IC50, antiproliferative activity
Method: as §1, §2

[5] = test system: HCT116; test: In vitro cell proliferation inhibition assay (CellTiter-Glo), HCT116; type: cell-based; conditions: HCT116, KRAS (p.G13D), 72 h; read-out: IC50, antiproliferative activity
Method: as §1, §2

[6] = test system: PSN1; test: In vitro cell proliferation inhibition assay (CellTiter-Glo), PSN1; type: cell-based; conditions: PSN1, KRAS (p.G12R), 72 h; read-out: IC50, antiproliferative activity
Method: as §1, §2

[7] = test system: MV411; test: In vitro cell proliferation inhibition assay (CellTiter-Glo), MV411; type: cell-based; conditions: MV411, KRAS wild type, 72 h; read-out: IC50, antiproliferative activity
Method: as §2

[8] = target: T1, cyclophilin A (CypA) (Homo sapiens, UniProt P62937); test: Binary complex binding assay (BLI); conditions: His-tagged CypA, pH 7.4, 1:1 binding model; for Kd: read-out: KD1 (binary complex equilibrium dissociation constant); for kon: read-out: ka (association rate constant); for koff: read-out: kdis (dissociation rate constant)
T1 construct: purchased R&D 3589-CAB
T1 sequence (P62937 whole entry): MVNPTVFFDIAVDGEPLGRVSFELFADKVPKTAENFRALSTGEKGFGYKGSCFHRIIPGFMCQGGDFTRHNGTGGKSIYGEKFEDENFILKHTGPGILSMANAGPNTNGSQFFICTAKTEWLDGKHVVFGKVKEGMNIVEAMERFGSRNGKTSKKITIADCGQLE
Method: To evaluate the binding ability of the test compounds to cyclophilin A (CypA), we employed a Bio-layer Interferometry (BLI) method (Octet R8) to monitor the binding kinetics between the compounds and CypA, and to calculate the affinity of the binary complex. His-tagged CypA protein (3589-CAB, R&D) was first immobilized on an NTA sensor, followed by baseline equilibration for 120 seconds in the assay buffer (20 mM HEPES, pH 7.4, 150 mM NaCl, 5 mM MgCl2, 1 mM TCEP, 0.01% Tween 20). The sensor was then exposed to buffer solutions containing different concentrations of the compounds to monitor the association process in real time. When the high-concentration compound binding reached a plateau, the sensor was transferred to compound-free buffer to measure the dissociation process. To ensure data accuracy, DMSO normalization was performed, non-specific binding was minimized by buffer optimization, and negative and positive controls were set to verify assay specificity. Data were processed using Octet Analysis Studio 13.0, analyzed using a 1:1 binding model, and the association rate constant (ka), dissociation rate constant (kdis), and equilibrium dissociation constant (KD1) were calculated.

[9] = target: ternary complex comprising RAS and CypA; KRAS^G12D (Homo sapiens, UniProt P01116+P62937, G12D); test: Ternary complex binding assay (BLI), KRAS G12D; conditions: GMPPNP-loaded KRAS^G12D, fixed concentration of CypA, pH 7.4, read-out: KD2 (ternary complex equilibrium dissociation constant)
Chain of ternary complex comprising RAS and CypA; KRAS^G12D (P01116 1-188 isoform P01116-2 G12D): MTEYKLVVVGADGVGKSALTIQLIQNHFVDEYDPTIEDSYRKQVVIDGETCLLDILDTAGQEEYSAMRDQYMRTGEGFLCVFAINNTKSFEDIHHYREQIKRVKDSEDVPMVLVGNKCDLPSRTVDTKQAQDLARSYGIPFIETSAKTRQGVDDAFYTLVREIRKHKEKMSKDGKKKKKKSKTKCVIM
Chain of ternary complex comprising RAS and CypA; KRAS^G12D (P62937 whole entry): as the sequence (P62937 whole entry) above
Method: (§3) To evaluate the ability of the test compounds to induce the formation of a ternary complex comprising RAS and CypA, we employed a Bio-layer Interferometry (BLI) method (Octet R8) to monitor the binding kinetics among the compounds, RAS, and CypA, and to calculate the affinity of the ternary complex. GMPPNP was first incubated with RAS protein to load GMPPNP onto RAS. His-tagged RAS proteins with different mutations were then immobilized on NTA sensors, followed by baseline equilibration for 120 seconds in the assay buffer (20 mM HEPES, pH 7.4, 150 mM NaCl, 5 mM MgCl2, 1 mM TCEP, 5 μM GMPPNP, 0.01% Tween 20). The sensors were subsequently exposed to buffer containing various concentrations of the compounds and a fixed concentration of CypA, and the association phase of ternary complex formation was monitored in real time. Once binding reached a plateau, the sensors were transferred to compound- and CypA-free buffer to measure the dissociation phase. To ensure accuracy, DMSO normalization was performed, buffer composition was optimized to reduce non-specific binding, and both negative and positive controls were employed to verify assay specificity. Data were processed using Octet Analysis Studio 13.0, analyzed using a 1:1 binding model, and the association rate constant (ka), dissociation rate constant (kdis), and equilibrium dissociation constant (KD2) were calculated.

[10] = target: ternary complex comprising RAS and CypA; KRAS^G12V (Homo sapiens, UniProt P01116+P62937, G12V); test: Ternary complex binding assay (BLI), KRAS G12V; conditions: GMPPNP-loaded KRAS^G12V, fixed concentration of CypA, pH 7.4, read-out: KD2 (ternary complex equilibrium dissociation constant)
Chain of ternary complex comprising RAS and CypA; KRAS^G12V (P01116 1-188 isoform P01116-2 G12V): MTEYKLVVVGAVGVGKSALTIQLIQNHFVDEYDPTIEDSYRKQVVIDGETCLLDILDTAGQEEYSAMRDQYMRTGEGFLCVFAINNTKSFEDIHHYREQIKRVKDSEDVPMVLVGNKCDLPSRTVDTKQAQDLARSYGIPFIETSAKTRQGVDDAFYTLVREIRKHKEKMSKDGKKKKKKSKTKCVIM
Chain of ternary complex comprising RAS and CypA; KRAS^G12V (P62937 whole entry): as the sequence (P62937 whole entry) above
Method: as §3

[11] = target: ternary complex comprising RAS and CypA; KRAS^WT (Homo sapiens, UniProt P01116+P62937); test: Ternary complex binding assay (BLI), KRAS WT; conditions: GMPPNP-loaded KRAS^WT, fixed concentration of CypA, pH 7.4, read-out: KD2 (ternary complex equilibrium dissociation constant)
Chain of ternary complex comprising RAS and CypA; KRAS^WT (P01116 1-188 isoform P01116-2): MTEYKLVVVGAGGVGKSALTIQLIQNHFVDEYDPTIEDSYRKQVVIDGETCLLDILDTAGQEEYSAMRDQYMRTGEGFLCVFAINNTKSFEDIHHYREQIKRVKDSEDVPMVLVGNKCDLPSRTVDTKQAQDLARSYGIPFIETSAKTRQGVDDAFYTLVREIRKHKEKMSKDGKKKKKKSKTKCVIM
Chain of ternary complex comprising RAS and CypA; KRAS^WT (P62937 whole entry): as the sequence (P62937 whole entry) above
Method: as §3

IC50 [1] [nM]	IC50 [2] [nM]	IC50 [3] [nM]	IC50 [4] [nM]	IC50 [5] [nM]	IC50 [7] [nM]	Kd [8] [nM]	kon [8] [M⁻¹ s⁻¹]	koff [8] [s⁻¹]	Kd [9] [nM]	Kd [10] [nM]	Kd [11] [nM]	ka (association rate constant) [8]	Structure (SMILES)	IC50 [6] [nM]
0.08	0.11	0.034	0.66	0.02	0.66	8.6	200000	0.0017	27	27	17	–	CO[C@@H](C)c1ncc(-c2nnc(C3CCN(C4COC4)CC3)o2)cc1-c1c2c3cc(ccc3n1CC(F)(F)F)-c1csc(n1)C[C@H](NC(=O)[C@H]1C[C@@H]1C)C(=O)N1CCC[C@H](N1)C(=O)OCC(C)(C)C2 (atropisomer, axis not shown) [Compound 5, (1S,2S)—N-((6^3S,4S,Z)-1^2-(2-((S)-1-methoxyethyl)-5-(5-(1-(oxetan-3-yl)piperidin-4-yl)-1,3,4-oxadiazol-2-yl)pyridin-3-yl)-10,10-dimethyl-5,7-dioxo-1^1-(2,2,2-trifluoroethyl)-6^1,6^2,6^3,6^4,6^5,6^6-hexahydro-1^1H-8-oxa-2(4,2)-thiazola-1(5,3)-indola-6(1,3)-pyridazinacycloundecaphane-4-yl)-2-methylcyclopropane-1-carboxamide]	0.03
0.21	0.52	0.001	0.06	2.8	0.35	0.81	150000	0.00012	43	25	27	–	CCn1c(-c2cc(-c3nc(C4CCN(C5COC5)CC4)n(C)n3)cnc2[C@H](C)OC)c2c3cc(ccc31)-c1csc(n1)C[C@H](NC(=O)[C@H]1[C@H](C)[C@@H]1C)C(=O)N1CCC[C@H](N1)C(=O)OCC(C)(C)C2 (atropisomer, axis not shown) [Compound 4, (1r,2R,3S)—N-((6^3S,4S,Z)-1^1-ethyl-1^2-(2-((S)-1-methoxyethyl)-5-(1-methyl-5-(1-(oxetan-3-yl)piperidin-4-yl)-1H-1,2,4-triazol-3-yl)pyridin-3-yl)-10,10-dimethyl-5,7-dioxo-6^1,6^2,6^3,6^4,6^5,6^6-hexahydro-1^1H-8-oxa-2(4,2)-thiazola-1(5,3)-indola-6(1,3)-pyridazinacycloundecaphane-4-yl)-2,3-dimethylcyclopropane-1-carboxamide]	0.07
0.03	0.14	0.004	0.05	0.7	0.49	16	230000	0.0037	19	–	–	–	CCn1c(-c2cc(-c3nnc(C4CCN(C5CN(C(C)C)C5)CC4)o3)cnc2[C@H](C)OC)c2c3cc(ccc31)-c1csc(n1)C[C@H](NC(=O)[C@H]1C[C@@H]1C)C(=O)N1CCC[C@H](N1)C(=O)OCC(C)(C)C2 (atropisomer, axis not shown) [Compound 7, (1S,2S)—N-((6^3S,4S,Z)-1^1-ethyl-1^2-(5-(5-(1-(1-isopropylazetidin-3-yl)piperidin-4-yl)-1,3,4-oxadiazol-2-yl)-2-((S)-1-methoxyethyl)pyridin-3-yl)-10,10-dimethyl-5,7-dioxo-6^1,6^2,6^3,6^4,6^5,6^6-hexahydro-1^1H-8-oxa-2(4,2)-thiazola-1(5,3)-indola-6(1,3)-pyridazinacycloundecaphane-4-yl)-2-methylcyclopropane-1-carboxamide]	0.05
0.005	0.01	0.021	0.1	0.14	0.42	2.7	–	0.00057	17	12	9.3	2.1E+05 1/[M*s]	CO[C@@H](C)c1ncc(-c2nnc(C3CCN(C4CN(C(C)C)C4)CC3)o2)cc1-c1c2c3cc(ccc3n1CC(F)(F)F)-c1csc(n1)C[C@H](NC(=O)[C@H]1[C@H](C)[C@@H]1C)C(=O)N1CCC[C@H](N1)C(=O)OCC(C)(C)C2 (atropisomer, axis not shown) [Compound 10, (1r,2R,3S)—N-((6^3S,4S,Z)-1^2-(5-(5-(1-(1-isopropylazetidin-3-yl)piperidin-4-yl)-1,3,4-oxadiazol-2-yl)-2-((S)-1-methoxyethyl)pyridin-3-yl)-10,10-dimethyl-5,7-dioxo-1^1-(2,2,2-trifluoroethyl)-6^1,6^2,6^3,6^4,6^5,6^6-hexahydro-1^1H-8-oxa-2(4,2)-thiazola-1(5,3)-indola-6(1,3)-pyridazinacycloundecaphane-4-yl)-2,3-dimethylcyclopropane-1-carboxamide]	0.07
